Measured values as given in paper PMC12668310, “High‐Throughput Synthesis and Screening of a Cyanimide Library Identifies Selective Inhibitors of ISG15‐Specific Protease mUSP18” (Angewandte Chemie (International Ed. in English), 2025).
“And” between values parts separate entries of the source, which are not always exact repeats. Equal values may be shown once.

Assays:
Assay in all cases: High-throughput screening, Ub-RhoMP, single dose 1.25 µM
Format in all cases: biochemical
USP30 = molecular target: T1, USP30 (Homo sapiens, UniProt Q70CQ3); design: USP30 CD (57-517); purchased Ubiquigent 64-0057-050; conditions: for %inhibition USP30: crude in-plate synthesized compound, 1.25 µM assuming full conversion; for BB %inhibition USP30: individual amine building block (plate NCN-5)
T1 sequence (Q70CQ3 57-517): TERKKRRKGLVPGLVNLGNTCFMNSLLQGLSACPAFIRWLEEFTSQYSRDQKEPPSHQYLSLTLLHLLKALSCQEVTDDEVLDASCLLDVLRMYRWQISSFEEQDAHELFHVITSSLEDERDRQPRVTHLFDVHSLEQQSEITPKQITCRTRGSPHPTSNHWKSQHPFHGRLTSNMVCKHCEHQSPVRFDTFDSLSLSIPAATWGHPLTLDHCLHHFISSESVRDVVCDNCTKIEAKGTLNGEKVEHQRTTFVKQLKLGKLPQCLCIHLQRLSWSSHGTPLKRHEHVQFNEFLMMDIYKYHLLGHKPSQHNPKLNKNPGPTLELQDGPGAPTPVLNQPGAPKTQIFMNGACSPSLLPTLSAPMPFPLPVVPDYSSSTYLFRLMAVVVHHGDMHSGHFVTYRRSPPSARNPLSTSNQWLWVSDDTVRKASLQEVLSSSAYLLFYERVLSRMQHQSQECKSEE
Description: (§1) Since the in‐plate synthesis was conducted in 1536‐well Echo plates, the compounds could readily be transferred from these plates into 1536‐well assay plates using acoustic liquid dispensing (Figure 2a) and subjected to HTS. We screened the whole 7536 compound library against a panel of twelve enzymes, including three DUBs from the UCH family, two DUBs from the OTU family, five DUBs from the USP family, plus ISG15 protease USP18, and SUMO protease SENP1. Each compound was tested at a single dose of 1.25 µM, assuming full conversion (10 mM in DMSO of the formed products) during the in‐plate synthesis, using the fluorogenic assay described above. […] The compounds are sorted by the amine building blocks (BB1‐16), and within each BB, sorted by carboxylic acid (CA1‐471), thereby providing a comprehensive and systematic overview of the overall inhibition by each BB and CA combination. Some interesting patterns can be obtained from this map. […] Indeed, BB10 is the privileged scaffold for UCHL1 as it originates from UCHL1 inhibitor 5 (Figure 1). […] On the other hand, OTUD1 and USP32 show a much higher hit rate, and this is even more pronounced for USP30 and ISG15 protease mUSP18, each showing many active compounds distributed over several BB's.
(§2) Purified recombinant enzymes used in this study
(§3) High-throughput screening
(§4) The screens were performed at room temperature in “flat bottom, non-treated, black […]
(§5) µM. The compounds (10 nL each) were transferred from the 1 mM daughter plates to the […]
(§6) Four wells containing DMSO
(§7) (10 nL) and four wells containing NEM (10 mM final concentration) were used in each plate […]
(§8) solution (1.33x final concentration) was added to each well, followed by incubation for 30 min.
(§9) Next, 2 µL of a substrate solution (4x final concentration) was added to each well (Ub-RhoMP[2]
(§10) After 1h or 2h incubation the
(§11) The percentage inhibition was calculated for each well using the […]
(§12) Where FIx is the fluorescence intensity of each well, FIpos is the average fluorescence intensity of the positive (NEM) control wells, and FIneg is the average fluorescence intensity of the negative (DMSO) control wells.

USP32 = molecular target: T2, USP32 (Homo sapiens, UniProt Q8NFA0); conditions: for %inhibition USP32: crude in-plate synthesized compound, 1.25 µM assuming full conversion; for inhibition at 1.25 µM: individual amine building block (plate NCN-5), read-out: BB %inhibition USP32
T2 construct: (1-1604); His-tag (N); made in house
Description: as §1, §2, §3, §4, §5, §6, §7, §8, §9, §10, §11, §12

UCHL1 = molecular target: T3, UCHL1 (Homo sapiens, UniProt P09936); conditions: for %inhibition UCHL1: crude in-plate synthesized compound, 1.25 µM assuming full conversion; for inhibition at 1.25 µM: individual amine building block (plate NCN-5), read-out: BB %inhibition UCHL1
T3 construct: (1-223); made in house
T3 sequence (P09936 1-223): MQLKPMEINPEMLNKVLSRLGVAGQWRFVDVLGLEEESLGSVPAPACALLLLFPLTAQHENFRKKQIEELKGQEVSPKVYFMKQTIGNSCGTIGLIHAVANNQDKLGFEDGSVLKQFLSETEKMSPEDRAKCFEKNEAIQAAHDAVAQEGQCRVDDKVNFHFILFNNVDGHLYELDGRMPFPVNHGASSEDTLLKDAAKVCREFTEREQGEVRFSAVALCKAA
Description: as §1, §2, §3, §4, §5, §6, §7, §8, §9, §10, §11, §12

UCHL5 = molecular target: T4, UCHL5 (Homo sapiens, UniProt Q9Y5K5); conditions: for %inhibition UCHL5: crude in-plate synthesized compound, 1.25 µM assuming full conversion; for inhibition at 1.25 µM: individual amine building block (plate NCN-5), read-out: BB %inhibition UCHL5
T4 construct: (1-329); purchased Novus biochemicals NBP1-72315
T4 sequence (Q9Y5K5 1-329): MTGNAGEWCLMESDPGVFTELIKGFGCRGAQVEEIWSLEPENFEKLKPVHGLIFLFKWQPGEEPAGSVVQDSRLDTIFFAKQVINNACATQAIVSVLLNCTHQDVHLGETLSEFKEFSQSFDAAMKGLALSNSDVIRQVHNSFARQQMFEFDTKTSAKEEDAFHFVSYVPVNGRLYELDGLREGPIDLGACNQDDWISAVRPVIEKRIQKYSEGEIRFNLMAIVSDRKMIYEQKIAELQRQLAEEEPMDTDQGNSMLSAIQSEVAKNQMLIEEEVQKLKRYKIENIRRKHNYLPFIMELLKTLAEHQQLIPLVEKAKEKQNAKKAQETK
Description: as §1, §2, §3, §4, §5, §6, §7, §8, §9, §10, §11, §12

USP24 = molecular target: T5, USP24 (Homo sapiens, UniProt Q9UPU5); conditions: for %inhibition USP24: crude in-plate synthesized compound, 1.25 µM assuming full conversion; for inhibition at 1.25 µM: individual amine building block (plate NCN-5), read-out: BB %inhibition USP24
T5 construct: (1-2620); His10; purchased Biotechne E-616
Description: as §1, §2, §3, §4, §5, §6, §7, §8, §9, §10, §11, §12

T2 sequence (Q8NFA0 whole entry): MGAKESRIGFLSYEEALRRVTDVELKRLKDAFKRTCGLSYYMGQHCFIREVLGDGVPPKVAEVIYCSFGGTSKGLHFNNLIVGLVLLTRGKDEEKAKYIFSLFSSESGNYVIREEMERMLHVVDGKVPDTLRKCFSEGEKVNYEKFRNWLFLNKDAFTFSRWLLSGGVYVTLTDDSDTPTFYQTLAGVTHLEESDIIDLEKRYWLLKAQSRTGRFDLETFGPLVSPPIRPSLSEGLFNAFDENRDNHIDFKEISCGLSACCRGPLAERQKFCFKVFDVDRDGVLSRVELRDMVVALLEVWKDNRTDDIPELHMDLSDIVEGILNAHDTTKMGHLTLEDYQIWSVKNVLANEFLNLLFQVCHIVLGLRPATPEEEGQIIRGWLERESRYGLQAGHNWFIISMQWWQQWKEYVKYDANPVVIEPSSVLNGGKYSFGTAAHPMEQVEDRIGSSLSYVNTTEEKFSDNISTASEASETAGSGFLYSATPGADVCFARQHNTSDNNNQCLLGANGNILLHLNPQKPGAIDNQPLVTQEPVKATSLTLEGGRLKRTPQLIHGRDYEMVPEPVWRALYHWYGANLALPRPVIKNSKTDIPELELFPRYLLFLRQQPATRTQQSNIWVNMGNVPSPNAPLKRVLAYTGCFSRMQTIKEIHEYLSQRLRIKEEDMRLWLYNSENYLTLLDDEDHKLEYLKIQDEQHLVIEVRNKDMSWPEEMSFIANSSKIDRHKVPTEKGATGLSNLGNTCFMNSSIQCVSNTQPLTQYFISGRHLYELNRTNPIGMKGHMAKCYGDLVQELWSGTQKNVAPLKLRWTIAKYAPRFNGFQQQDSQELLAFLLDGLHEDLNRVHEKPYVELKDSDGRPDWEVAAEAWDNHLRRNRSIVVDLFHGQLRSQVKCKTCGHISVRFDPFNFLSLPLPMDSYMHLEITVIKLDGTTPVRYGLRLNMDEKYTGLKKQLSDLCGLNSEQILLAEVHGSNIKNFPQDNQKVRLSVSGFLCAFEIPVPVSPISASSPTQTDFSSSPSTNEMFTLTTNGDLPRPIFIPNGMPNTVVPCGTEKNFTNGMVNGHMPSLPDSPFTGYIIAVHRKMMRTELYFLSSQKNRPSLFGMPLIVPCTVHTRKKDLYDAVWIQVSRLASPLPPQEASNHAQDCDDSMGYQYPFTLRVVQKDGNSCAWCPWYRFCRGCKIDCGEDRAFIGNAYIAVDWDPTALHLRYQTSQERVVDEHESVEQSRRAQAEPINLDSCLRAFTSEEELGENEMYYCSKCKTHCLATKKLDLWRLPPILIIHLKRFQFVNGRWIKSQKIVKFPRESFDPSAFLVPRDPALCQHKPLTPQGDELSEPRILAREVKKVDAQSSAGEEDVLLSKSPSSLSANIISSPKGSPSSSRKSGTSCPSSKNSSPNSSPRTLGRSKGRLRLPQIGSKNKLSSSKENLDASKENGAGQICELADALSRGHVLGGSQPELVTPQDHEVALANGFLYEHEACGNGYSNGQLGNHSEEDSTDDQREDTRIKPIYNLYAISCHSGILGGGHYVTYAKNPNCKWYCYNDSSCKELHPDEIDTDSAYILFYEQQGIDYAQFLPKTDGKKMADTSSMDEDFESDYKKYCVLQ
T5 sequence (Q9UPU5 whole entry): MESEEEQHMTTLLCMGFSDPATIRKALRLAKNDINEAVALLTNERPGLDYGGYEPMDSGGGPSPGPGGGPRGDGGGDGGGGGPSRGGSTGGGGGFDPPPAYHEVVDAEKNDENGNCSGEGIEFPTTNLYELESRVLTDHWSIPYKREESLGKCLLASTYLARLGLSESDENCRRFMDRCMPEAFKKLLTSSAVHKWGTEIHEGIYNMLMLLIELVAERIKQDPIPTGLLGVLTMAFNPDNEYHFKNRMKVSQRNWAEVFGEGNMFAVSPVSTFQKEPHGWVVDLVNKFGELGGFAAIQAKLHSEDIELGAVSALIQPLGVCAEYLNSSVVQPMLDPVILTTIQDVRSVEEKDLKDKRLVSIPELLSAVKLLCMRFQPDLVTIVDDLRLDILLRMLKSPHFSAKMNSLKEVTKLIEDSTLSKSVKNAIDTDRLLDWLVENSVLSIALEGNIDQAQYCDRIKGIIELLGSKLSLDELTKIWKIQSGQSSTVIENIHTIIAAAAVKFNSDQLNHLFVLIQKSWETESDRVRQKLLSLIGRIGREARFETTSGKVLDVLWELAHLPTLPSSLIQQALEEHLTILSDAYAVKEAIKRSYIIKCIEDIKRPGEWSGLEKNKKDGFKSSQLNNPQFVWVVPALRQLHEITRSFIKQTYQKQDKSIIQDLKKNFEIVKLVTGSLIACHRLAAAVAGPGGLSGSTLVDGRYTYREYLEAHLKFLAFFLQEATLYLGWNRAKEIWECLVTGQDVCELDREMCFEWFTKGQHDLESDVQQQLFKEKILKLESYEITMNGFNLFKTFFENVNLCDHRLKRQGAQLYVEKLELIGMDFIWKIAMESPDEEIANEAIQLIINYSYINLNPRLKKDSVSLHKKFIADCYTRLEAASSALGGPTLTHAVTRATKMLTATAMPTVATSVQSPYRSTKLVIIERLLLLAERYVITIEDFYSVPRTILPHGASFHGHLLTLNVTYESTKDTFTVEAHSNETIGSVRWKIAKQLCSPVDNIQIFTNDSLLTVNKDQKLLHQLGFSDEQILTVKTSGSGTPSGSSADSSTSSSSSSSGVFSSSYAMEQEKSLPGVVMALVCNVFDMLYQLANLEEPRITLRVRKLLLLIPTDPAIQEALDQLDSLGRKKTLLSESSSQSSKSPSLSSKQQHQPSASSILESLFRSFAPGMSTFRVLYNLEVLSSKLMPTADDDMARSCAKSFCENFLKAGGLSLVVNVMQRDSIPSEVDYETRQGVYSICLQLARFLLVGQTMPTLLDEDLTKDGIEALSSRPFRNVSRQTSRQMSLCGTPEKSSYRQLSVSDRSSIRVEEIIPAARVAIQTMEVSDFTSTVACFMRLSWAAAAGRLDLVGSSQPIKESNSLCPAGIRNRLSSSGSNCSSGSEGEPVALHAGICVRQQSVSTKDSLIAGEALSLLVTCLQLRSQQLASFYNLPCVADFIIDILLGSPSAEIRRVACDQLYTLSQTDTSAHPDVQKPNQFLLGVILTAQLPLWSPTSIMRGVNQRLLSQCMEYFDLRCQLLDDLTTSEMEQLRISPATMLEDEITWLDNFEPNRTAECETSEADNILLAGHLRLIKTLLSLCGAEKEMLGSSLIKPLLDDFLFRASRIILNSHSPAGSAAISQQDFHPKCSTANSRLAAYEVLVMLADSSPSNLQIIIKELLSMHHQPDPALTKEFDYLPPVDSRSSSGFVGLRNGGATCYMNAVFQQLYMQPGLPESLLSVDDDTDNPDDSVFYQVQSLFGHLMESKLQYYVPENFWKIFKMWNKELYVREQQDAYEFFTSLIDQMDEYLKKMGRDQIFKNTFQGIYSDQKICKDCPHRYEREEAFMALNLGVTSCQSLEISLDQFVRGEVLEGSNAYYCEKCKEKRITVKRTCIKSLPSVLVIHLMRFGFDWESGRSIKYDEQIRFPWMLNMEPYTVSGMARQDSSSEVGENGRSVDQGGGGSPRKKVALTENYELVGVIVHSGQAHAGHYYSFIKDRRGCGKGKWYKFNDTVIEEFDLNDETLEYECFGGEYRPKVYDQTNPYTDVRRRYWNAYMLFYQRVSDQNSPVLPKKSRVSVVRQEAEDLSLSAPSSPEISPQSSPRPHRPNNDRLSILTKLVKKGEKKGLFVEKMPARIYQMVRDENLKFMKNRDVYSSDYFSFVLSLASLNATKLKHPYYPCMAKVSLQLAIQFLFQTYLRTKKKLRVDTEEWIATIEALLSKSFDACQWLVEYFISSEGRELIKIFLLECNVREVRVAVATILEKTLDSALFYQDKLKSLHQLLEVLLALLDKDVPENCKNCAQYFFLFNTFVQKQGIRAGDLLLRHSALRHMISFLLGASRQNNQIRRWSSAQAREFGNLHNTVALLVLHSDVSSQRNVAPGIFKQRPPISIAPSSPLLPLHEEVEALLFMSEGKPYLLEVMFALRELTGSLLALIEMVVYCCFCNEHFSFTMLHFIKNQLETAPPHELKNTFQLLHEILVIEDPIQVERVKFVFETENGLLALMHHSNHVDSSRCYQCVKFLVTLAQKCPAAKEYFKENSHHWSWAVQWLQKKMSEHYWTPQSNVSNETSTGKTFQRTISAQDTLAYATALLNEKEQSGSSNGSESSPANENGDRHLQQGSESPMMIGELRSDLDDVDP

SMILES	%inhibition USP30 (USP30) [%]	%inhibition USP32 (USP32) [%]	%inhibition UCHL1 (UCHL1) [%]	%inhibition UCHL5 (UCHL5) [%]	%inhibition USP24 (USP24) [%]	BB %inhibition USP30 (USP30)	inhibition at 1.25 µM (USP32) [%]	inhibition at 1.25 µM (UCHL1) [%]	inhibition at 1.25 µM (UCHL5) [%]	inhibition at 1.25 µM (USP24) [%]
N#CN1CC[C@@H](NC(=O)c2nc(N3CCCC3)ncc2Cl)C1 [BB01CA90]	54.5	19.4	15.1	6.9	0.9					
N#CN1CC[C@@H](NC(=O)C(Cc2c[nH]cn2)NS(=O)(=O)c2ccc(Cl)cc2)C1 (stereo partly drawn) [BB01CA91]	36.0	22.5	11.2	8.4	-0.9					
N#CN1CC[C@@H](NC(=O)Cc2csc(-c3cnccn3)n2)C1 [BB01CA92]	65.3	21.1	8.8	6.2	3.2					
N#CN1CC[C@@H](NC(=O)CCN(Cc2ccccc2)S(=O)(=O)c2c(Cl)cccc2Cl)C1 [BB01CA93]	101.1	75.0	9.7	5.2	9.1					
N#CN1CC[C@@H](NC(=O)c2ncoc2-c2cccs2)C1 [BB01CA94]	73.0	15.3	8.0	4.4	-1.8					
N#CN1CC[C@@H](N)C1 [BB1]						5.9%	9.5	2.6	-4.7	6.1
N#CN1CCC(N)CC1 [BB2]						4.8%	9	4	-3.3	5.5
N#CN1CC[C@H](N)C1 [BB3]						3.7%	8.4	1.1	-5.8	-1.4
N#CN1CCC[C@@H](N)C1 [BB4]						5.1%	4.7	3.6	-6.7	0.8
N#CN1CC(N)C1 [BB5]						-0.656%	5.3	3.8	2.9	5
N#CN1C[C@H]2C[C@@H](N)C[C@H]2C1 [BB6]						-0.126%	6	0.4	2.5	3.1
N#CN1C[C@H]2C[C@H](N)C[C@H]2C1 [BB7]						-2.3%	2.8	0.7	-1.4	-3.9
N#CN1CCC[C@H](N)C1 [BB8]						-2.4%	1.3	1	4.6	-0.279
N#CN1CC[C@@H](NC(=O)c2ccc(CN)cc2)C1 [BB9]						~35% and 31.5%	2.8	-0.3	-9.9	0.33
N#CN1CC[C@H](C(=O)Nc2nc3c(s2)CNCC3)C1 [BB10]						-2.0%	1.5	~35	-11	-1.8
N#CN1CC[C@H](CN)C1 [BB11]						-5.7%	-1.5	-2.6	-7.1	-6.5
N#CN1C[C@@H]2C[C@H]1CN2 [BB12]						-3.6%	-1.2	-1.2	-5.3	-3.7
N#CN1C[C@H](N)[C@@H](O)C1 [BB13]						7.5%	1.1	0.8	0.225	5.7
N#CN1CCC2(CCNC2)C1 (stereo not drawn) [BB14]						3.9%	0.344	1	-1.4	3.8
N#CN1C[C@@H](F)[C@@H](N)C1 [BB15]						-2.2%	-3.1	1	-6	5.6
N#CN1CCC(n2cc(N)cn2)CC1 [BB16]						0.9%	-6.1	1.3	-7.7	9.2
